This passage reports IC50 results from patent US20060035901A1, “Methotrexate derivatives useful for treating cancer and arthritis” (Serenex, Inc., priority 2004, published 2006).

Molecules are shown by their SMILES.

For this assay, the target named is T1, pyruvate carboxylase (PYC) (Sus scrofa, UniProt A0A8W4F6F0).
T1 construct: a porcine liver proteome was run over an ATP-Sepharose™ column; from tissue; host or cells: porcine liver
T1 sequence (A0A8W4F6F0 1-1157): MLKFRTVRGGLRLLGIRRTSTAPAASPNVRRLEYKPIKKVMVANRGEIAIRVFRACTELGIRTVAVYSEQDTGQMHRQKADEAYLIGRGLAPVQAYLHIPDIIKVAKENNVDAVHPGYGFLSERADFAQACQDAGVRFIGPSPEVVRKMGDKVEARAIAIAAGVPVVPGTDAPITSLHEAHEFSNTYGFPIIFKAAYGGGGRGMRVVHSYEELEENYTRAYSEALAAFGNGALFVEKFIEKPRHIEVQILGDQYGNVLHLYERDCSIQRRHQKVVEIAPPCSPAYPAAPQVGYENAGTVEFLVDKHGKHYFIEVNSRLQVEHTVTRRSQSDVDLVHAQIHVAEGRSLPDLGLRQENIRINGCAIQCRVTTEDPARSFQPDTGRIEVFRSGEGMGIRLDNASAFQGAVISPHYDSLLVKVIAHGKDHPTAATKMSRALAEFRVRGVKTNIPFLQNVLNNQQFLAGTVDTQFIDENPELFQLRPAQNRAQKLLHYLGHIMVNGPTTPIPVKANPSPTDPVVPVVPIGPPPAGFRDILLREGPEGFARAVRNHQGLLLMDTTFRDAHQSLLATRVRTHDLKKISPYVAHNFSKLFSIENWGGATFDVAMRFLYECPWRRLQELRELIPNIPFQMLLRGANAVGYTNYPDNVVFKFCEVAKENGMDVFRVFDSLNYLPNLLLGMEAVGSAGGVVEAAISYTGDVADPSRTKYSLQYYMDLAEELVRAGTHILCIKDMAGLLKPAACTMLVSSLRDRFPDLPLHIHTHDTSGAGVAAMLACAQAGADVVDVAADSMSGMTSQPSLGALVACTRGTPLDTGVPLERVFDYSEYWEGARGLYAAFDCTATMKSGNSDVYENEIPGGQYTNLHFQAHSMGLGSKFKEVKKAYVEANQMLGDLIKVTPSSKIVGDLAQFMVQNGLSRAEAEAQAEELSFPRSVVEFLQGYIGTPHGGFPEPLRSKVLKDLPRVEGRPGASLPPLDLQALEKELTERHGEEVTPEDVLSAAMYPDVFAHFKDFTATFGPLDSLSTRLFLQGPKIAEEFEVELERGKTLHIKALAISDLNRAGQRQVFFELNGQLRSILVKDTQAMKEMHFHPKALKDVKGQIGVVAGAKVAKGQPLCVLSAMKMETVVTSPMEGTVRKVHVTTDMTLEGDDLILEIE
The assay can be described thus: Elution of PYC from ATP-Sepharose column loaded with porcine liver proteome, IC50 estimate. The format is binding. The conditions noted are these: estimated from percent of protein eluted from ATP-Sepharose column, read-out: Approximate IC50 for PYC. The method, then: Similar experiments were carried out to compare the IC50 values for PYC, PCCA, and PCCB. In these trials, a porcine liver proteome was run over an ATP-Sepharose™ column to bind all purine-binding proteins. The ATP-Sepharose™ column was washed several times, and then eluted with the compound of Formula III at concentrations of 1 μM, 5 μM, 10 μM, 50 μM, 100 μM, and 500 μM to identify proteins that bound to this compound. (The amount of protein eluted at the higher concentration ranges plateaued, thus confirming that the entire fraction of bound protein had been eluted.) The eluted fractions were run on a 1-dimensional SDS polyacrylamide gel.
Gels were stained with a fluorescent stain such as sypro ruby (a highly sensitive fluorescent protein stain that can readily detect less than 1 fmol of total protein, i.e., less than 0.04 ng for a 40 kDa protein). The gels were imaged using a standard flat bed gel imager and the amount of protein estimated by densiometry. The percent of protein eluted from the column at each concentration was determined and IC50 values were calculated from these estimates. Where necessary, the eluted proteins were cut out of the gel, and identified using mass spectral techniques.
These steps were repeated with each of the compounds of Formulas IV-X, MTX, and the c series derivative. The values obtained were then compared to those for DHFR.
For the molecule `C#CCN(Cc1cnc2nc(N)nc(N)c2n1)c1ccc(C(=O)NC(CCC(=O)O)C(=O)O)cc1C` (stereo not shown) [Formula III, 2-{4-[(2,4-diamino-pteridin-6-ylmethyl)-prop-2-ynyl-amino]-3-methyl-benzoylamino}-pentanedioic acid], the IC50 was 3.8 µM.

`C#CCN(Cc1cnc2nc(N)nc(N)c2n1)c1ccc(C(=O)NC(CCC(=O)O)C(=O)O)cc1OC(F)(F)F` (stereo not shown) [Formula IX]: the IC50 is 7 µM.

On to `C#CCN(Cc1cnc2nc(N)nc(N)c2n1)c1ccc(C(=O)NC(CCC(=O)O)C(=O)O)cc1OC` (stereo not shown) [Formula VIII], for which the half-maximal inhibitory concentration (IC50) is 3.75 µM.

As for `Cc1cc(C(=O)NC(CCC(=O)O)C(=O)O)ccc1N(Cc1ccoc1)Cc1cnc2nc(N)nc(N)c2n1` (stereo not shown) [Formula VII], the IC50 was 3.5 µM.
